From ChEMBL document CHEMBL1201862, “PubChem BioAssay data set” (2004)
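Assay format: 96-well plates, 48-hour exposure. GI50 is the concentration that inhibits growth by half.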 Active and inactive are the calls of the source. Cut-off read from the data, not from the text of the source: active = GI50 up to about 1.1 µM and inactive = higher.

Tests used:
Assay in all cases: NCI tumour cell line growth inhibition, 48 h
A498 = test system: A498
Hs-578T = test system: Hs-578T
MDA-N = test system: MDA-N
HT-29 = test system: HT-29
MDA-MB-435 = test system: MDA-MB-435
MOLT-4 = test system: MOLT-4
M14 = test system: M14
IGROV-1 = test system: IGROV-1
HCC 2998 = test system: HCC 2998
SN12C = test system: SN12C
NCI-H226 = test system: NCI-H226
NCI-H23 = test system: NCI-H23
OVCAR-5 = test system: OVCAR-5
BT-549 = test system: BT-549
MCF7 = test system: MCF7
SK-MEL-28 = test system: SK-MEL-28
PC-3 = test system: PC-3
HCT-15 = test system: HCT-15
MDA-MB-231 = test system: MDA-MB-231
SW-620 = test system: SW-620
NCI/ADR-RES = test system: NCI/ADR-RES
HL-60 = test system: HL-60
A549 = test system: A549
EKVX = test system: EKVX
CAKI-1 = test system: CAKI-1
SK-OV-3 = test system: SK-OV-3
RPMI-8226 = test system: RPMI-8226
DU-145 = test system: DU-145
LOX IMVI = test system: LOX IMVI
HOP-92 = test system: HOP-92
OVCAR-8 = test system: OVCAR-8
HCT-116 = test system: HCT-116
NCI-H522 = test system: NCI-H522
SNB-19 = test system: SNB-19
T47D = test system: T47D
KM12 = test system: KM12
UO-31 = test system: UO-31
ACHN = test system: ACHN
OVCAR-3 = test system: OVCAR-3
UACC-257 = test system: UACC-257
UACC-62 = test system: UACC-62
SF-295 = test system: SF-295
CCRF-CEM = test system: CCRF-CEM
K562 = test system: K562
SK-MEL-5 = test system: SK-MEL-5
786-0 = test system: 786-0
SK-MEL-2 = test system: SK-MEL-2
NCI-H460 = test system: NCI-H460
U-251 = test system: U-251
HOP-62 = test system: HOP-62
RXF 393 = test system: RXF 393
SF-268 = test system: SF-268
SNB-75 = test system: SNB-75
Malme-3M = test system: Malme-3M
COLO 205 = test system: COLO 205
SR = test system: SR
SF-539 = test system: SF-539
TK-10 = test system: TK-10
OVCAR-4 = test system: OVCAR-4

CCC1OC(=O)CC(O)C(C)C(OC2OC(C)CC(N(C)C)C2O)C(CC=O)CC(C)C(=O)/C=C/C2(C)OC2C1C (centres undefined)
GI50 (A498): 25.9 µM (inactive)
GI50 (Hs-578T): 32.4 µM (inactive)
GI50 (MDA-N): 25.8 µM (inactive)
GI50 (HT-29): 17.9 µM (inactive)
GI50 (MDA-MB-435): 16.8 µM (inactive)
GI50 (MOLT-4): 16.5 µM (inactive)
GI50 (M14): 31 µM (inactive)
GI50 (IGROV-1): 10.3 µM (inactive)
GI50 (HCC 2998): > 100 µM (inactive)
GI50 (SN12C): 18 µM (inactive)
GI50 (NCI-H226): 16.3 µM (inactive)
GI50 (NCI-H23): 19 µM (inactive)
GI50 (OVCAR-5): 41.3 µM (inactive)
GI50 (BT-549): 15.1 µM (inactive)
GI50 (MCF7): 5.47 µM (inactive)
GI50 (SK-MEL-28): 21.4 µM (inactive)
GI50 (PC-3): 26.6 µM (inactive)
GI50 (HCT-15): 18.3 µM
GI50 (MDA-MB-231): 28.3 µM (inactive)
GI50 (SW-620): 17 µM (inactive)
GI50 (NCI/ADR-RES): 31.2 µM (inactive)
GI50 (HL-60): 12.8 µM (inactive)
GI50 (A549): 49.4 µM (inactive)
GI50 (EKVX): 15.6 µM (inactive)
GI50 (CAKI-1): 31.5 µM (inactive)
GI50 (SK-OV-3): 27.2 µM (inactive)
GI50 (RPMI-8226): 27 µM (inactive)
GI50 (DU-145): 23.2 µM (inactive)
GI50 (LOX IMVI): 17.3 µM (inactive)
GI50 (HOP-92): 27.9 µM (inactive)
GI50 (OVCAR-8): 22.4 µM (inactive)
GI50 (HCT-116): 15.8 µM (inactive)
GI50 (NCI-H522): 15 µM (inactive)
GI50 (SNB-19): 16.9 µM (inactive)
GI50 (T47D): 19.9 µM (inactive)
GI50 (KM12): 14.4 µM (inactive)
GI50 (UO-31): 23.3 µM (inactive)
GI50 (ACHN): 19.6 µM (inactive)
GI50 (OVCAR-3): 22.8 µM (inactive)
GI50 (UACC-257): > 100 µM (inactive)
GI50 (UACC-62): 14.1 µM (inactive)
GI50 (SF-295): 29 µM (inactive)
GI50 (CCRF-CEM): 4.91 µM (inactive)
GI50 (K562): 6.76 µM (inactive)
GI50 (SK-MEL-5): 15.2 µM (inactive)
GI50 (786-0): 17.2 µM (inactive)
GI50 (SK-MEL-2): 45.2 µM (inactive)
GI50 (NCI-H460): > 100 µM (inactive)
GI50 (U-251): 14.8 µM (inactive)
GI50 (HOP-62): 25.2 µM (inactive)
GI50 (RXF 393): 17.2 µM (inactive)
GI50 (SF-268): 27.2 µM (inactive)
GI50 (SNB-75): 19.3 µM (inactive)
GI50 (Malme-3M): 21.7 µM (inactive)
GI50 (COLO 205): 16.9 µM (inactive)
GI50 (SR): 13.9 µM (inactive)
GI50 (SF-539): 6.62 µM (inactive)

CC1(C)OC(CP(c2ccccc2)c2ccccc2)C(CP(c2ccccc2)c2ccccc2)O1 (centres undefined)
GI50 (A498): 3.39 µM (inactive)
GI50 (Hs-578T): 2.02 µM (inactive)
GI50 (MDA-N): 1.52 µM (inactive)
GI50 (HT-29): 0.656 µM (active)
GI50 (MDA-MB-435): 2.16 µM (inactive)
GI50 (MOLT-4): 0.254 µM (active)
GI50 (M14): 1.79 µM (inactive)
GI50 (IGROV-1): 0.222 µM (active)
GI50 (TK-10): > 19.8 µM (inactive)
GI50 (HCC 2998): 0.774 µM (active)
GI50 (SN12C): 1.32 µM (inactive)
GI50 (NCI-H23): 0.485 µM (active)
GI50 (OVCAR-5): 2.25 µM (inactive)
GI50 (BT-549): 2.93 µM (inactive)
GI50 (MCF7): 0.0869 µM (active)
GI50 (SK-MEL-28): > 28.2 µM (inactive)
GI50 (PC-3): 0.0548 µM (active)
GI50 (HCT-15): 3.22 µM
GI50 (MDA-MB-231): 1.22 µM (inactive)
GI50 (SW-620): 1.17 µM (inactive)
GI50 (NCI/ADR-RES): > 100 µM (inactive)
GI50 (HL-60): 0.0443 µM (active)
GI50 (A549): 0.27 µM (active)
GI50 (EKVX): 0.914 µM (active)
GI50 (CAKI-1): 2.92 µM (inactive)
GI50 (OVCAR-4): 986 nM (active)
GI50 (SK-OV-3): 3.55 µM (inactive)
GI50 (RPMI-8226): 1.17 µM (inactive)
GI50 (DU-145): 2.23 µM (inactive)
GI50 (LOX IMVI): 0.224 µM (active)
GI50 (HOP-92): 2.36 µM (inactive)
GI50 (OVCAR-8): 0.741 µM (active)
GI50 (HCT-116): 0.165 µM (active)
GI50 (NCI-H522): 0.298 µM (active)
GI50 (SNB-19): 0.601 µM (active)
GI50 (T47D): 0.345 µM (active)
GI50 (KM12): 0.617 µM (active)
GI50 (UO-31): 1.69 µM (inactive)
GI50 (ACHN): 2.12 µM (inactive)
GI50 (OVCAR-3): 0.0535 µM (active)
GI50 (UACC-62): 1.97 µM (inactive)
GI50 (SF-295): 0.544 µM (active)
GI50 (CCRF-CEM): 0.794 µM (active)
GI50 (K562): 0.372 µM (active)
GI50 (SK-MEL-5): 2.13 µM (inactive)
GI50 (786-0): 1.83 µM (inactive)
GI50 (SK-MEL-2): 1.81 µM (inactive)
GI50 (NCI-H460): 0.417 µM (active)
GI50 (U-251): 0.191 µM (active)
GI50 (HOP-62): 0.418 µM (active)
GI50 (RXF 393): 0.857 µM (active)
GI50 (SF-268): 3.81 µM (inactive)
GI50 (SNB-75): 1.36 µM (inactive)
GI50 (Malme-3M): 1.99 µM (inactive)
GI50 (COLO 205): 0.0792 µM (active)
GI50 (SR): 0.552 µM (active)
GI50 (SF-539): 2.1 µM (inactive)
